Assay results: patent US11058696B2, “Substituted bicyclic compounds” (BRISTOL-MYERS SQUIBB COMPANY, priority 2014, dated 2021)

How the values were obtained:
[1] = molecular target: S1P1 (membranes prepared from S1P1/CHO cells) (Homo sapiens (Human), UniProt P21453); experiment: Receptor [35S] GTPγS Binding Assay (S1P1 GTPγS); assay type: biochemical; settings: GTPγS S1P1 versus GTPγS S1P3 binding assays
Procedure: Receptor [^35S] GTPγS Binding Assays: (S1P1 GTPγS/S1P3 GTPγS)
Compounds were loaded in a 384 Falcon v-bottom plate (0.5 μl/well in a 11 point, 3-fold dilution). Membranes prepared from S1P1/CHO cells or EDG3-Gal5-bla HEK293T cells (EDG3 equivalent S1P3) were added to the compound plate ([…], final protein 3 μg/well) with MULTIDROP®. [^35S]GTP (1250 Ci/mmol, Perkin Elmer) was diluted in assay buffer: 20 mM HEPES, pH7.5, 10 mM MgCl2, 150 mM NaCl, 1 mM EGTA (ethylene glycol tetraacetic acid), 1 mM DTT (Dithiothreitol), 10 μM GDP, 0.1% fatty acid free BSA, and 10 μg/ml Saponin to 0.4 nM. 40 μl of the [^35S] GTP solution was added to the compound plate with a final concentration of 0.2 nM. The reaction was kept at room temperature for 45 min. At the end of incubation, all the mixtures in the compound plate were transferred to Millipore 384-well FB filter plates via the VELOCITY11® Vprep liquid handler. The filter plate was washed with water 4 times by using the manifold Embla plate washer and dried at 60° C. for 45 min. MicroScint 20 scintillation fluid (30 μl) was added to each well for counting on the Packard TOPCOUNT®.
A larger value for the GTPγS S1P3 EC50 value indicated less activity in the GTPγS S1P3 binding assay.

[2] = test system: spontaneous lupus, anti-dsDNA antibodies and kidney histology; experiment: MRL/lpr Lupus Model; assay type: in vivo; settings: MRL/lpr mice, p.o. daily
Text: MRL/lpr Lupus Model: MRL/lpr is a spontaneous model of lupus. Male MRL/lpr mice (Jackson Laboratory) at the age of 12-14 weeks were enrolled for the study (N=12). […] Mice were bled every other week for anti-dsDNA antibodies measured by ELISA using pooled serum from diseased MRL/lpr mice as a positive comparator in each assay. The data were expressed in arbitrary units as a ratio of the titer of the test serum to the titer of the pooled MRL/lpr immune serum. At the end of study, one kidney was collected into 10% neutral buffered formalin and ZincTris fixatives. Fixed tissues were processed into paraffin blocks, sectioned at 3 μm, and stained with H&E or PASH. Kidney sections were graded using following criteria: Glomerular Damage: 1. Mesangial matrix thickening, cell proliferation, 2. Crescent formation, cellular deposits/casts in Bowman's space, 3. Cellular infiltration, mononuclear cells in glomerular tufts, 4. Fibrosis of Bowman's capsule. Tubular damage: 1. Infiltration of mononuclear cells, 2. Severity of tubular damage, 3. Protein casts. Tubulo-interstitial damage: 1. Fibrosis, 2. Infiltration of mononuclear cells. Each subcategory was assigned a score from 0-4, with the scores for glomerular indices representing the mean from 20 glomeruli per kidney. The total score for each mouse was the sum of the above 9 subcategories, with the highest possible score=36.

Sequence of S1P1 (membranes prepared from S1P1/CHO cells) (P21453 whole entry): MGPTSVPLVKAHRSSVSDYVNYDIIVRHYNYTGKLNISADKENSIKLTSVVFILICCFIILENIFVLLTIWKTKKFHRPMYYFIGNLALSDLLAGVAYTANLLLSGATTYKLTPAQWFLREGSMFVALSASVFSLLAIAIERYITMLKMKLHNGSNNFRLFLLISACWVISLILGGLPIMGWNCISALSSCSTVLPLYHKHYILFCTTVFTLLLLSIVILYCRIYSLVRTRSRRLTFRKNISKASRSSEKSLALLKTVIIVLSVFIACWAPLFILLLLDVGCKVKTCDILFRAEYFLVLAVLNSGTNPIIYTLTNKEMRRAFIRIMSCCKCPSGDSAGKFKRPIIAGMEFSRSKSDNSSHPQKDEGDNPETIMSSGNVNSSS

Structure (SMILES)	activity as an agonist of S1P1 and selectivity over S1P3 [1]	inhibition of disease progression as measured by anti-dsDNA titers and kidney histology [2]
COCCCCCC1CCc2cc([C@H]3CC[C@](N)(COP(=O)(O)O)C3)ccc2C1 (single isomer, unassigned) [Example 689]	possessed activity as an agonist of S1P1 and is selective over S1P3	–
COc1ccccc1CC[C@@H]1CCc2cc([C@H]3CC[C@](N)(CO)C3)ccc2C1 [Example 681, ((1R,3S)-1-amino-3-((S)-6-(2-methoxyphenethyl)-5,6,7,8-tetrahydronaphthalen-2-yl)cyclopentyl)methanol]	–	showed inhibition of disease progression
